Experiments:
PI3Kα kinase = molecular target: T1, PI3Kα kinase (Homo sapiens, UniProt P42336); test: PI3Kα assay (32P incorporation into phosphatidylinositol, TLC densitometry); assay type: biochemical; details: At 100 nM
T1 construct: purchased Millipore, USA
Description: The assay was designed as in the reference, Cell, 2006, 125, 733-47 (Supplemental Data), the disclosure of which is incorporated by reference for the teaching of the assay.
The kinase reaction was carried out in a 25 μL volume in a 1.5 mL microcentrifuge tube. The reaction mixture consisted of kinase buffer (10 mM Hepes, pH 7.5, 50 mM MgCl2), 20 ng PI3Kα kinase (Millipore, USA), 12.5 μg phosphatidylinositol (PI), 10 μM ATP and 1 μCi ^32γ P dATP. Compounds of Example 1-40 were added at concentrations (stock solution was prepared in DMSO and subsequent dilutions were made in kinase buffer) as mentioned in the table. The reaction mixture was incubated at 30° C. for 20 minutes and was terminated by adding 1:1 mixture of MeOH and chloroform. The tube contents were mixed on a vortex mixer and centrifuged at 10000 rpm for 2 minutes. 10 μL of the organic (lower) phase was spotted on to a TLC plate (silica, mobile phase: n-propanol and 2 M glacial acetic acid in 65:35 ratio). The plates were dried and exposed to an X-ray film. The bands appearing as a result of ^32γ P incorporation in PI were quantitated using the QuantityOne (BioRad, USA) densitometry program. PI-103 (Calbiochem, USA) was used as a standard.

OVCAR 3 = test: Cytotoxicity, propidium iodide assay, OVCAR 3; assay type: cell-based; details: Homo sapiens; Ovarian, OVCAR 3, 48 hours treatment; read-out: IC50, C3b (OVCAR 3)
Description: (§1) The assay was designed as in the reference, Anticancer Drugs, 2002, 13, 1-8, the disclosure of which is incorporated by reference for the teaching of the assay.
(§2) Cells from cell lines as mentioned in the table given below were seeded at a density of 3000 cells/well in a white opaque 96-well plate. Following incubation at 37° C./5% CO2 for a period of 18-24 hours, the cells were treated with various concentrations (stock solution was prepared in DMSO and subsequent dilutions were made in media as per ATCC guidelines) of the compounds of Example 1-40 was for a period of 48 hours. At the end of treatment, the spent culture medium was discarded, the cells were washed with 1×PBS and 200 μl of 7 μg/ml propidium iodide was added to each well. The plates were frozen at −70° C. for at least 24 hours. For analysis, the plates were brought to RT, allowed to thaw and were read in PoleStar fluorimeter with the fluorescence setting. The percentage of viable cells in the non-treated set of wells was considered to be 100 and the percentage viability following treatment was calculated accordingly. IC50 values were calculated from graphs plotted using these percentages. Table 4 depicts the IC50 values of compounds of Example 1-40 in individual cell lines.
(§3) The abbreviations for the Cell Lines as used in Table 4 are: […]

PI3K α = test: PI3K activity assay, cell-based ELISA of AKT (Ser 473) phosphorylation; details: Homo sapiens, Ovarian cell line A2780, 20% FCS stimulation
Description: The assay was designed as in the reference, Biochemical Journal, 2000, 350, 717-722, the disclosure of which is incorporated by reference for the teaching of the assay.
Seed cells (Ovarian cell line A2780, ATCC) were plated in a 96 well microtitre plate at a density of 50,000 cells/cm^2 in appropriate complete cell culture medium. The cells were allowed to adhere for 18-24 hours. The cells were allowed to starve for 24 hours. The cells were pretreated (in triplicates) with the compounds of Example 1-40 (stock solution was prepared in DMSO and subsequent dilutions were made in kinase buffer) at a concentration of 10 μM for one hour. Then the cells were stimulated with 20% FCS for 30 minutes. A typical assay would consist of a set of unstimulated cells, a set of stimulated cells and a set of cells treated with compounds of Example 1-40 and a set of cells treated with the stimulator. The medium was discarded. The cells were fixed with 100 μL of 3.7% formaldehyde for 15 minutes. The formaldehyde was discarded by inverting the plate and tapping it on a thick tissue paper layer to remove traces. The cells were washed and permeabilized with 200 μL PBS+Triton-X 100 solution (hereafter referred to as PBS-Triton, containing 0.1% triton-X 100 in 1×PBS) three times, incubating the cells each time for 5 minutes. 100 μL blocking solution (10% FCS in PBS-Triton) was added and incubated for 1 hour at 25° C. The blocking solution was discarded and cells were incubated with the primary antibody in PBS-Triton at a dilution of 1:500 for 1 hour at RT (25° C.). [The primary antibody is Phospho-AKT (Ser 473); Cell Signaling; USA, Cat. No. 9271]. The primary antibody solution was discarded and the cells were washed 3 times with PBS-Triton solution and incubated with the HRP-conjugated secondary antibody in PBS-Triton at a dilution of 1:500 for 1 hour at RT (25° C.). The cells were washed 3 times with PBS-Triton followed by two washes with PBS (to remove traces of triton-X 100). The OPD (o-phenylene diamine dihydrochloride) substrate was prepared for detection of the signal by dissolving one tablet set (two tablets) of SigmaFast OPD (Sigma, USA, Cat No. P9187) in 20 mL distilled water. It should be kept protected from light. 100 μL OPD solutions was added to the wells and the plate was incubated in the dark for 3-5 minutes (depending upon the development of the color). The reaction was stopped by adding 50 μL 2 NH2SO4. The absorbance was measured at 490 nm. The values were expressed in the treated samples, in terms of percentage or fold decrease in AKT phosphorylation with respect to the induced sample. PI-103 (Calbiochem, USA) was used as a standard.

IL-6 = test: Human monocyte assay, LPS-stimulated IL-6 (ELISA); assay type: cell-based; details: human monocytes, 1 μg/ml LPS, 5 hours
Description: (§4) The assay was designed as in the reference, Physiol. Res., 2003, 52, 593-598, the disclosure of which is incorporated by reference for the teaching of the assay.
(§5) Peripheral blood mononuclear cells (hPBMC) were harvested from human blood and suspended in RPMI 1640 culture medium containing 10% FCS, 100 U/mL penicillin and […] streptomycin (assay medium). Monocytes in the hPBMCs were counted using a Coulter Counter following which the cells were resuspended at 2×10^5 monocytes/mL. A cell suspension containing 2×10^4 monocytes was aliquoted per well of a 96-well plate. Subsequently, the hPBMCs were incubated for 4-5 hours at 37° C. under 5% CO2 (During the incubation, the monocytes adhered to the bottom of 96-well plastic culture plate). Following the incubation, the non-adherent lymphocytes were washed with assay medium and the adherent monocytes re-fed with assay medium. After a 48-hour incubation period (37° C., 5% CO2), monocytes were pretreated with various concentrations of compounds of Example 1-40 (prepared in DMSO) or vehicle (0.5% DMSO) for 30 minutes and stimulated with 1 μg/ml LPS (Escherchia coli 0111:B4, Sigma Chemical Co., St. Louis, Mo.). The incubation was continued for 5 hours at 37° C., 5% CO2. Supernatants were harvested, assayed for IL-6 and TNF-α by ELISA as described by the manufacturer (BD Biosciences, USA). Dexamethasone (10 μM) was used as standard for this assay. The 50% inhibitory concentration (IC50) values were calculated by a nonlinear regression method. In all experiments, a parallel plate was run to ascertain the toxicity of compounds of Example 1-40. The toxicity was determined using the MTS assay as described in Am. J. Physiol. Cell Physiol., 2003, 285, C813-C822.

PC3 = test: Cytotoxicity, propidium iodide assay, PC3; assay type: cell-based; details: Homo sapiens, PC-3; Prostate, PC3, 48 hours treatment; read-out: IC50, C2a (PC3)
Description: as §1, §2, §3

TNF-α = test: Human monocyte assay, LPS-stimulated TNF-α (ELISA); assay type: cell-based; details: human monocytes, 1 μg/ml LPS, 5 hours, read-out: TNFα (IC50)
Description: as §4, §5

A2780 = test: Cytotoxicity, propidium iodide assay, A2780; assay type: cell-based; details: Homo sapiens; Ovarian, A2780, 48 hours treatment; read-out: IC50, C3a (A2780)
Description: as §1, §2, §3

H460 = test: Cytotoxicity, propidium iodide assay, H460; assay type: cell-based; details: Homo sapiens, NCI-H460; Lung, H460, 48 hours treatment; read-out: IC50, C1b (H460)
Description: as §1, §2, §3

U 373 = test: Cytotoxicity, propidium iodide assay, U 373; assay type: cell-based; details: Homo sapiens, U373 MG; Glioblastoma, U 373, 48 hours treatment; read-out: IC50, C7a (U 373)
Description: as §1, §2, §3

AsPC 1 = test: Cytotoxicity, propidium iodide assay, AsPC 1; assay type: cell-based; details: Homo sapiens, ASPC1; Pancreatic, AsPC 1, 48 hours treatment; read-out: IC50, C5b (AsPC 1)
Description: as §1, §2, §3

HCT116 = test: Cytotoxicity, propidium iodide assay, HCT116; assay type: cell-based; details: Homo sapiens, HCT-116; Colon, HCT116, 48 hours treatment; read-out: IC50, C4a (HCT116)
Description: as §1, §2, §3

A549 = test: Cytotoxicity, propidium iodide assay, A549; assay type: cell-based; details: Homo sapiens; Lung, A549, 48 hours treatment; read-out: IC50, C1a (A549)
Description: as §1, §2, §3

BxPC3 = test: Cytotoxicity, propidium iodide assay, BxPC3; assay type: cell-based; details: Homo sapiens, BXPC-3; Pancreatic, BxPC3, 48 hours treatment; read-out: IC50, C5c (BxPC3)
Description: as §1, §2, §3

U 87 MG = test: Cytotoxicity, propidium iodide assay, U 87 MG; assay type: cell-based; details: Homo sapiens, Glioblastoma, 48 hours treatment, read-out: IC50, C7b (U 87 MG)
Description: as §1, §2, §3

T1 sequence (P42336 whole entry): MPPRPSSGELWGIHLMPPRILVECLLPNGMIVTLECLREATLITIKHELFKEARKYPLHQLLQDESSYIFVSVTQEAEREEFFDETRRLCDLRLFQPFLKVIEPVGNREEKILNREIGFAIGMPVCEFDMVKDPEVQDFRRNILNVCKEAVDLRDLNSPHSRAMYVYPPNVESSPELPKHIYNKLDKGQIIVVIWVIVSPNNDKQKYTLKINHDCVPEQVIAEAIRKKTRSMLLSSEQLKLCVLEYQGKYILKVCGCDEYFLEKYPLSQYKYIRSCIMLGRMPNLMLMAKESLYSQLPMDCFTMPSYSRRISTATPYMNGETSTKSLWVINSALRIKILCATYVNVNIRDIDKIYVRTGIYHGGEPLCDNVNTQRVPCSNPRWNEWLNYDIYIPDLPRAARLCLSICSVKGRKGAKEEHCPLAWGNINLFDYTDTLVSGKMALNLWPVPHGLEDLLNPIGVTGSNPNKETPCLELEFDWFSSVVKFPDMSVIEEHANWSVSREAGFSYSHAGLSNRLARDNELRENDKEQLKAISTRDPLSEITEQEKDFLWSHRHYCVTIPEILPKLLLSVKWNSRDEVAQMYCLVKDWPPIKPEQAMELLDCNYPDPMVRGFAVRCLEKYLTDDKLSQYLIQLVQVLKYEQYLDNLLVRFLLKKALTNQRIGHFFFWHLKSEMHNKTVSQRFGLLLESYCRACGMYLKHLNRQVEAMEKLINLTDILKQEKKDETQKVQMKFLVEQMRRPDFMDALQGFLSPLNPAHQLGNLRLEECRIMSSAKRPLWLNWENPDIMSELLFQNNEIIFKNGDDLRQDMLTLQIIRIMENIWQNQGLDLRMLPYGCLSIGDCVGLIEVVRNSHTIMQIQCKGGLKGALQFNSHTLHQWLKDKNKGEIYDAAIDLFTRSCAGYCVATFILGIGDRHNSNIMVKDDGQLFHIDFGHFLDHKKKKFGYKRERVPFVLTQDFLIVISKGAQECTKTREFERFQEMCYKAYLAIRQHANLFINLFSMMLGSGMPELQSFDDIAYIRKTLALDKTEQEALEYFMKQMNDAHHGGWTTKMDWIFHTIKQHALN
T1 sequence (P27986 whole entry partner): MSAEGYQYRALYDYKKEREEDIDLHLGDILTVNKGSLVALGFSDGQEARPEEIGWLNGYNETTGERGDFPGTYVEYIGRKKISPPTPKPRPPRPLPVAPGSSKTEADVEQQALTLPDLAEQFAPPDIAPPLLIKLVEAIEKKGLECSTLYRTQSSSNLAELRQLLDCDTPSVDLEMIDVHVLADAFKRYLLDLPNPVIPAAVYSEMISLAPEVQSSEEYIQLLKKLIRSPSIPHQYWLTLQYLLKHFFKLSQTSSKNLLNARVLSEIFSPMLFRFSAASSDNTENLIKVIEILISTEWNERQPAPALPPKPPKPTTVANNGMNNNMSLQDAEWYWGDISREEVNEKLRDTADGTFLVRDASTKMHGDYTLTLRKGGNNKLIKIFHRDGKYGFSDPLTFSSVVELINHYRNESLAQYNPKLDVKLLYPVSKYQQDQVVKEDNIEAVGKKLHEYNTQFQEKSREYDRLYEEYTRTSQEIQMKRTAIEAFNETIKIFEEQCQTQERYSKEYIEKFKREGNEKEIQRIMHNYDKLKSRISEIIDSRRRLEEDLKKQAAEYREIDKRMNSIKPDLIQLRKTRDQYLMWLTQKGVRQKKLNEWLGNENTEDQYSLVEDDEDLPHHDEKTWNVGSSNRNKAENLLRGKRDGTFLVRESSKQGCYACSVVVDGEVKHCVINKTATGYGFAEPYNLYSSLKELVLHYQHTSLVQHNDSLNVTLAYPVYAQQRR

SMILES	inhibition at 0.1 µM (PI3Kα kinase) [%]	IC50 (OVCAR 3) [nM]	inhibition at 10 µM (PI3K α) [%]	IC50 (IL-6) [nM]	IC50 (PC3) [nM]	IC50 (TNF-α) [nM]	IC50 (A2780) [nM]	IC50 (H460) [nM]	IC50 (U 373) [nM]	IC50 (AsPC 1) [nM]	IC50 (HCT116) [nM]	IC50 (A549) [nM]	IC50 (BxPC3) [nM]	IC50 (U 87 MG) [nM]
CC(C)(C#N)c1ccc(-n2c(=O)n(S(=O)(=O)c3ccccc3C#N)c3cnc4ccc(Br)cc4c32)cc1 [Example 2, 2-(8-Bromo-1-(4-(2-cyanopropan-2-yl)phenyl)-2-oxo-1H-imidazo[4,5-c]quinolin-3 (2H)-ylsulfonyl)benzonitrile]	10 to 50	1000 to 3000	10 to 50	1000 to 10000	≤ 1000	≤ 1000	≤ 1000	≤ 1000	> 3000					
CC(C)(C#N)c1ccc(-n2c(=O)n(S(=O)(=O)c3ccc(F)cc3F)c3cnc4ccc(Br)cc4c32)cc1 [Example 17, 2-(4-(8-Bromo-3-(2,4-difluorophenylsulfonyl)-2-oxo-2,3-dihydro-1H-imidazo[4,5-c]quinolin-1-yl)phenyl)-2-methylpropanenitrile]	10 to 50		> 50	1000 to 10000	1000 to 3000		≤ 1000	1000 to 3000		1000 to 3000	1000 to 3000	1000 to 3000	1000 to 3000	
Cc1cc(C)cc(S(=O)(=O)n2c(=O)n(-c3ccc(C(C)(C)C#N)cc3)c3c4cc(Br)ccc4ncc32)c1 [Example 6, 2-(4-(8-Bromo-3-(3,5-dimethylphenylsulfonyl)-2-oxo-2,3-dihydro-1H-imidazo[4,5-c]quinolin-1-yl)phenyl)-2-methylpropanenitrile]	> 50	> 3000	10 to 50	> 30000	1000 to 3000			> 3000	> 3000		> 3000	> 3000		> 3000
CC(C)(C#N)c1ccc(-n2c(=O)n(C(=O)Nc3ccccc3Br)c3cnc4ccc(Br)cc4c32)cc1 [Example 33, 8-Bromo-N-(2-bromophenyl)-1-(4-(2-cyanopropan-2-yl)phenyl)-2-oxo-1H-imidazo[4,5-c]quinoline-3(2H)-carboxamide]	> 50	> 3000		> 30000	> 3000	≤ 1000		1000 to 3000	> 3000		> 3000	1000 to 3000		> 3000
CC(C)(C#N)c1ccc(-n2c(=O)n(S(C)(=O)=O)c3cnc4ccc(Br)cc4c32)cc1 [Example 18, 2-(4-(8-Bromo-3-(methylsulfonyl)-2-oxo-2,3-dihydro-1H-imidazo[4,5-c]quinolin-1-yl)phenyl)-2-methylpropanenitrile]	10 to 50			1000 to 10000	1000 to 3000		≤ 1000	≤ 1000		1000 to 3000	1000 to 3000	1000 to 3000	1000 to 3000	
Cc1cccc(S(=O)(=O)n2c(=O)n(-c3ccc(C(C)(C)C#N)cc3)c3c4cc(Cl)ccc4ncc32)c1 [Example 19, 2-(4-(8-Chloro-2-oxo-3-(m-tolylsulfonyl)-2,3-dihydro-1H-imidazo[4,5-c]quinolin-1-yl)phenyl)-2-methylpropanenitrile]		> 3000			1000 to 3000			1000 to 3000			> 3000	≤ 1000	> 3000	

From patent US8637670B2, “Imidazo [4,5-C]quinoline derivatives and their use in the treatment of tumors and/or inflammation” (Piramal Enterprises Limited, priority 2009, dated 2014)
